Assay results as given in the supplement of paper PMC10307832.

What was measured:
Assay in all cases: relative viability (nuclei count vs DMSO), 5 days (fraction); higher = more cells survive
Sulindac + Trametinib = compound: CC1=C(CC(=O)O)c2cc(F)ccc2/C1=C\c1ccc([S+](C)[O-])cc1 [Sulindac] + CC(=O)Nc1cccc(-n2c(=O)n(C3CC3)c(=O)c3c(Nc4ccc(I)cc4F)n(C)c(=O)c(C)c32)c1 [Trametinib] (partner 0.02 µM)
In short: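 Lung cancer cell lines, seeded in 1536-well plates, were treated the following day by pin tool with a single drug or with five library-drug doses (not always all listed) in √10 steps on top of a fixed anchor-drug dose. Cells were fixed and nuclei stained in one step after 5 days, and nuclei were counted. Relative viability is the nuclei count for treated wells divided by that for vehicle wells, reported as medians of duplicate plates.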

Sulindac = compound: CC1=C(CC(=O)O)c2cc(F)ccc2/C1=C\c1ccc([S+](C)[O-])cc1 [Sulindac]
In short: (§1)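 Vehicle-anchored 1536-well plates of lung cancer cell lines, held overnight at 37 °C, were pinned with five library-drug doses (not always all listed) spaced by √10. No medium change followed over the next 5 days, after which the cells were fixed, permeabilised and Hoechst-stained together and imaged at 4×. Nuclei were counted with MetaXpress, and viability is treated-well nuclei over vehicle-well nuclei, taken as a median across plates. Plates passed with control CV below 25% and at least one doubling.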

5-Fluorouracil = compound: O=c1[nH]cc(F)c(=O)[nH]1 [5-Fluorouracil]
In short: as §1

Staurosporine = compound: CN[C@@H]1C[C@H]2O[C@@](C)([C@@H]1OC)n1c3ccccc3c3c4c(c5c6ccccc6n2c5c31)C(=O)NC4 [Staurosporine]
In short: as §1

Cell Line	relative viability (Sulindac + Trametinib; first compound 0.08 µM)	relative viability (Sulindac + Trametinib; first compound 0.253 µM)	relative viability (Sulindac + Trametinib; first compound 0.8 µM)	relative viability (Sulindac + Trametinib; first compound 2.53 µM)	relative viability (Sulindac + Trametinib; first compound 8 µM)	relative viability (Sulindac; 0.08 µM)	relative viability (Sulindac; 0.253 µM)	relative viability (Sulindac; 0.8 µM)	relative viability (Sulindac; 2.53 µM)	relative viability (Sulindac; 8 µM)	relative viability (5-Fluorouracil; 0.02 µM)	relative viability (5-Fluorouracil; 0.2 µM)	relative viability (5-Fluorouracil; 0.6325 µM)	relative viability (5-Fluorouracil; 2 µM)	relative viability (Staurosporine; 0.005 µM)	relative viability (Staurosporine; 0.01581 µM)	relative viability (Staurosporine; 0.05 µM)	relative viability (Staurosporine; 0.1581 µM)	relative viability (Staurosporine; 0.5 µM)
NCI-H2085	0.513	0.569	0.576	0.435	0.384	0.919	1	0.891	0.971	1.04	0.931	1.02	0.989	0.813	0.833	0.586	0.624	0.361	0.285
NCI-H1792	0.425	0.393		0.512	0.513	1.19	1.08		1.07	1.09	0.975	0.851	0.278	0.344	0.536	0.251	0.235	0.173	0.177
NCI-H2347	0.279	0.272	0.297	0.258	0.271	1.01	1.06	0.759	1.03	1.11	0.928	0.834	0.49	0.448	0.706	0.524	0.457	0.391	0.376
201T	0.763	0.732	0.717	0.695	0.712	1.02	1	1	0.977	1.09	0.997	0.774	0.345	0.335	0.968	0.564	0.854	0.563	0.279
NCI-H1755	0.886	0.751	0.775	0.812	0.89	1.1	1.09	1.01	1.08	1.06	1.02	0.994	0.356	0.304	0.829	0.47	0.319	0.191	0.213
NCI-H647	0.577	0.591	0.358	0.472	0.61	1.32	1.15	0.791	0.898	1.11	1	1.11	0.842	0.623	0.546	0.317	0.295	0.0837	0.059
NCI-H1650	0.599	0.794	0.445	0.491	0.766	0.851	1.1	0.732	0.942	1.01	0.814	0.878	0.564	0.343	0.684	0.372	0.314	0.15	0.0851
NCI-H1355	0.389	0.462	0.312	0.43	0.42	1.02	1.06	0.873	0.971	1.08	0.925	0.877	0.438	0.309	0.856	0.238	0.363	0.197	0.159
NCI-H1975	0.382	0.38	0.36	0.356	0.367	1.09	0.969	0.795	0.998	1.07	0.968	1.07	0.566	0.343	0.475	0.365	0.258	0.159	0.136
BEN	0.975	1.03	0.934	1.02	1.13	1.13	0.963	0.853	0.967	1.16	0.912	0.865	0.68	0.675	1.12	0.905	0.516	0.396	0.237
NCI-H322M	0.474	0.506	0.48	0.5	0.603	0.951	0.921	0.869	0.903	0.989	0.954	0.923	0.791	0.651	1.13	0.491	0.58	0.387	0.344
SK-MES-1	0.563	0.555	0.538	0.561	0.579	1.18	1.14	0.818	1.08	1.1	1.04	0.634	0.364	0.316	0.572	0.334	0.213	0.217	0.127
HOP-62	0.411	0.404	0.34	0.411	0.388	1.17	1.13	0.926	1.13	1.09	1.03	1	0.971	0.877	0.83	0.298	0.183	0.138	0.109
HCC-366	0.359	0.384		0.357	0.396	1.2	1.08	0.757	1	1.08	1.03	1.02	0.687	0.138	1.05		0.911	0.15	0.0345
NCI-H2405	0.687	0.668	0.581	0.634	0.731	1.05	1.09	0.958	0.944	1.16	1.01	1.17	0.956	0.75		0.209	0.158	0.13	0.118
SW 900	0.847	0.982			0.945	0.644	0.939		0.601	0.928	0.693	0.883	0.859	0.476	0.624	0.368	0.297	0.19	0.102
LXF-289	0.745	0.713	0.666	0.695	0.686	1.11	1.05	0.994	1.02	1.08	0.961	0.912	0.434	0.301	1.02	0.652	0.477	0.0851	0.127
